Literature values, collected in patent US20230150906A1, “DESOXYSCALINE DERIVATIVES WITH MODIFIED MESCALINE-LIKE ACTION” (Mind Medicine, Inc., priority 2021, published 2023).
“Also recorded” adds a separate entry of the source.

Columns and labels:
5-HT transporter (SERT) = 5-HT transporter (SERT) (Homo sapiens, UniProt P31645)
5-HT2A receptor = 5-HT2A receptor (Homo sapiens, UniProt P28223)
[1] = humans
[2] = molecular target: serotonin 5-HT2A receptor (Homo sapiens, UniProt P28223)
D2 receptors = D2 receptors (Homo sapiens, UniProt P14416)
Sequence of D2 receptors (P14416 whole entry): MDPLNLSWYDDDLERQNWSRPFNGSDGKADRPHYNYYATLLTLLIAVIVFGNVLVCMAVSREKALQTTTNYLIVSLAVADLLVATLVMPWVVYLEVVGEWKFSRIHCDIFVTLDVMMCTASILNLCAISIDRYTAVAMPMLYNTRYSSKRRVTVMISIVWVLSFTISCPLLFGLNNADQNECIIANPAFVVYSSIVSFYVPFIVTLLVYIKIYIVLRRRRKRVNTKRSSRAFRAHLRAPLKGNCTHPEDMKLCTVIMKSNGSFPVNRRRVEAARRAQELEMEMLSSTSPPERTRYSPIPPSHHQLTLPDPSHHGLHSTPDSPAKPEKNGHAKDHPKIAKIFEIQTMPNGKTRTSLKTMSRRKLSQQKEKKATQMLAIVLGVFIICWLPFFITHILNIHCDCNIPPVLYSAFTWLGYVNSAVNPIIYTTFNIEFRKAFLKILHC

Sequence of 5-HT2A receptor (P28223 whole entry): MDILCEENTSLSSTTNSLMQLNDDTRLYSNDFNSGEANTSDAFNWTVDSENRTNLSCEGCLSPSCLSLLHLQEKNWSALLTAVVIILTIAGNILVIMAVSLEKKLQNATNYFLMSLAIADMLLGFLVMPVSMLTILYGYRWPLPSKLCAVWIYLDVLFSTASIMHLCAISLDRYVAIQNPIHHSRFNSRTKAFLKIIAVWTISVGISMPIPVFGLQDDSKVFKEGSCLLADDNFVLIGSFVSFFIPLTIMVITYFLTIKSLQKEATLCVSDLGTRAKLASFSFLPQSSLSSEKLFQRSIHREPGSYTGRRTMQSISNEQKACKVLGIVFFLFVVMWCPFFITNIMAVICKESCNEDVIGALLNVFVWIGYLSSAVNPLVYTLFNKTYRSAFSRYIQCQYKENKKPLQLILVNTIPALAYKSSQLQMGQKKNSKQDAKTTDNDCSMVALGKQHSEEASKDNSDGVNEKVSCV
Sequence of 5-HT transporter (SERT) (P31645 whole entry, species assumed): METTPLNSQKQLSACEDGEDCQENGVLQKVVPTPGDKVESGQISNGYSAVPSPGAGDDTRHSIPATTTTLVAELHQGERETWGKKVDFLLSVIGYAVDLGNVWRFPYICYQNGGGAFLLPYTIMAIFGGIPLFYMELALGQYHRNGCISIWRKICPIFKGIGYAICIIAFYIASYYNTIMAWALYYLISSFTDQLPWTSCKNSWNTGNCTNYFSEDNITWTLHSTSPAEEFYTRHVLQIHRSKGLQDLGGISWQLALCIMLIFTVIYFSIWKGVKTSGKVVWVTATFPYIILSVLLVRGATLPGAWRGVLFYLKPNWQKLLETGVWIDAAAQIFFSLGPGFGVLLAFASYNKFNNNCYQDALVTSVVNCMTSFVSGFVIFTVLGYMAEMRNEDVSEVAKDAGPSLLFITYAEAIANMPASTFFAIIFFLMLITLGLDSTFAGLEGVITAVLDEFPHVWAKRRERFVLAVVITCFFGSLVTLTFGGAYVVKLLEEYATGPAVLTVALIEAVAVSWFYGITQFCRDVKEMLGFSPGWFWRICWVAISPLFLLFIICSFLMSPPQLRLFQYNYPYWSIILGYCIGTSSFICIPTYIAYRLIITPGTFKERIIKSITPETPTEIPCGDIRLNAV
Sequence of serotonin 5-HT2A receptor (P28223 whole entry): as the sequence (P28223 whole entry) above

SMILES: COc1cc(CCN)cc(OC)c1C [DESOXY, 3,5-dimethoxy-4-methylphenethylamine]
- psychoactive effects in human (humans; human): has shown psychoactive effects in human

SMILES: CN(C)CCc1c[nH]c2cccc(O)c12 [Psilocin, psilocin]
- interaction with the SERT (5-HT transporter (SERT)): inhibits
- activity at the 5-HT2A receptor (agonism / stimulation) (5-HT2A receptor): stimulates

SMILES: CN(C)CCc1c[nH]c2ccccc12 [DMT, N,N-dimethyltryptamine]
- activity at the 5-HT2A receptor (agonism / stimulation) (5-HT2A receptor): agonists

SMILES: COc1cc(CCN)cc(OC)c1OC [mescaline]
- interaction with the SERT (5-HT transporter (SERT)): do not interact
- plasma half-life [1]: approximately 6 hours
- activity at the 5-HT2A receptor (agonism / stimulation) (5-HT2A receptor): agonists
- 5-HT2A receptor ligand strength [2]: very weak
- affinity for D2 receptors (D2 receptors): no affinity
- dose needed to induce a full psychedelic experience (humans; humans): 200 to 800 mg
- time of peak of subjective effects (humans; humans, psychoactive doses): 4 h
- time until subjective effects appear (humans; humans, psychoactive doses): ≤ 30 min
- duration of subjective effects (humans; humans, psychoactive doses, dose-dependent): 10 to 16 h

SMILES: CCN(CC)C(=O)[C@@H]1C=C2c3cccc4[nH]cc(c34)C[C@H]2N(C)C1 [LSD, lysergic acid diethylamide]
- activity at the 5-HT2A receptor (agonism / stimulation) (5-HT2A receptor): agonists; also recorded: potently stimulates
- activity at D2 receptors (D2 receptors): has activity
